Source: ChEMBL document CHEMBL5052826, “Kif18a inhibitors” (2020)

Molecular target: T1, Kinesin-like protein KIF18A (Homo sapiens, UniProt Q8NI77)
T1 sequence (Q8NI77 whole entry): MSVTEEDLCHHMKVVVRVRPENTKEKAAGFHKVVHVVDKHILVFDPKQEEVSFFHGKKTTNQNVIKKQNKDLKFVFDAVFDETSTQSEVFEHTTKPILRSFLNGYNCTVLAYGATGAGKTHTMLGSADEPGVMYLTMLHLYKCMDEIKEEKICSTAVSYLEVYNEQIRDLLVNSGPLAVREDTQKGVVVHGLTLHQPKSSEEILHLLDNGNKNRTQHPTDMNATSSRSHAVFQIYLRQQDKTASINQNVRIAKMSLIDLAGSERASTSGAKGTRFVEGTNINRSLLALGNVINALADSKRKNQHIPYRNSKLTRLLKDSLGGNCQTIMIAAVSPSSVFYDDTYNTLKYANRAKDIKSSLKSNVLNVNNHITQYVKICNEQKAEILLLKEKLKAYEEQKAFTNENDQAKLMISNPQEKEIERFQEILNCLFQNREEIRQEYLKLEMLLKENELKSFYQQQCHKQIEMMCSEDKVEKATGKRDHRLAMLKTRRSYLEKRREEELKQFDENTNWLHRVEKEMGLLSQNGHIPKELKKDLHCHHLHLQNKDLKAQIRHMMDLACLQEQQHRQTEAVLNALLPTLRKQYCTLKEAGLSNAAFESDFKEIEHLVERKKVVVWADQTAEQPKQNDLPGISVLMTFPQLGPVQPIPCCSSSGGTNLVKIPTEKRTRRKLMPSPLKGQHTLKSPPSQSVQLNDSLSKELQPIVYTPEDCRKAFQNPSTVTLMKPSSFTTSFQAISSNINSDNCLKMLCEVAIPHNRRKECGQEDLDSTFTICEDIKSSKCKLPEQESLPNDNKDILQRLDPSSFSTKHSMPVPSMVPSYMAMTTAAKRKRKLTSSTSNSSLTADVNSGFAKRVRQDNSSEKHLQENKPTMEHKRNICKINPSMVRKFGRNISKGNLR
Assay: Inhibition of recombinant His-tagged human KIF18A (1 to 467 residues) expressed in baculovirus expression system assessed as inhibition of microtubule-stimulated ATPase activity preincubated for 15 mins followed by ATP addition and further incubated for 15 mins and measured after 40 mins by ADP-Glo reagent based assay

Structure (SMILES) | IC50
Cc1cc(NC(=O)c2ccc(NS(=O)(=O)C[C@H](C)O)cc2N2CCC3(CC2)CC3)nc(N2CCO[C@H](C)C2)n1 | 151 nM
Cc1cc(NC(=O)c2ccc(S(C)(=O)=O)cc2N2CCC3(CC2)CC3)nc(NC(C)(C)CO)n1 | 186 nM
Cc1cc(NC(=O)c2ccc(S(=O)(=O)[C@@H](C)CO)cc2N2CCC3(CC2)CC3)nc(N2CCC(F)(F)CC2)n1 | 57 nM
Cc1cc(NC(=O)c2ccc(S(=O)(=O)[C@H](C)CO)cc2N2CCC3(CC2)CC3)nc(N2CCC(F)(F)CC2)n1 | 64 nM
